The source of these data is article PMC10489938, “Developing an Amide-Spacered Triterpenoid Rhodamine Hybrid of Nano-Molar Cytotoxicity Combined with Excellent Tumor Cell/Non-Tumor Cell Selectivity” (Molecules, 2023).

Series [1] relates to HeLa (cervical adenocarcinoma). Description: SRB cytotoxicity assay, HeLa. In kind it is cell-based, human. The settings on record: Homo sapiens, HeLa; Table 2; SRB assay, 72 h of treatment; cut-off 30 μM; read-out: Cytotoxicity (EC50) HeLa. Here is the method: (§1) Sulforhodamine (SRB) assays were performed to evaluate the cytotoxicity of the compounds. First, the cytotoxicity of the different rhodamines was determined; the results of these assays are compiled in Table 1 and Table 2 and depicted in Figure 1.
(§2) Experimental equipment: as previously described biological assays were performed as previously reported employing cell lines obtained from the Department of Oncology [Martin-Luther-University Halle Wittenberg; they were bought from ATCC [2, 4, 7]]. Rhodamine 101 B, as well as asiatic acid, were obtained from local vendors and used as received.
(§3) For the SRB assay and staining experiments: as previously described.
A general note: The SRB assay estimates cell density from bound dye.

Series [2] has as its system A2780 (ovarian carcinoma). Description: SRB cytotoxicity assay, A2780. It is filed as cell-based, human. Particulars: Homo sapiens, A2780; Table 2; SRB assay, 72 h of treatment; cut-off 30 μM; read-out: Cytotoxicity (EC50) A2780. Here is the method:
as §1, §2, §3

For series [3], the system named is MCF7 (breast adenocarcinoma). Briefly: SRB cytotoxicity assay, MCF7. Particulars: Homo sapiens, MCF7; Table 2; SRB assay, 72 h of treatment; cut-off 30 μM; read-out: Cytotoxicity (EC50) MCF7. In kind it is cell-based, human. Here is the method:
as §1, §2, §3

A further series relates to A375 (melanoma). Description: SRB cytotoxicity assay, A375. In kind it is cell-based, human. The settings on record: Homo sapiens, A-375; Table 2; SRB assay, 72 h of treatment; cut-off 30 μM; read-out: Cytotoxicity (EC50) A375. Here is the method:
as §1, §2, §3

For series [4], the system named is HT29 (colorectal carcinoma). Briefly: SRB cytotoxicity assay, HT29. In kind it is cell-based, human. Particulars: Homo sapiens, HT-29; Table 2; SRB assay, 72 h of treatment; cut-off 30 μM; read-out: Cytotoxicity (EC50) HT29. Here is the method:
as §1, §2, §3

The nature of series [5]: SRB cytotoxicity assay, NIH 3T3. Particulars: mouse, NIH 3T3 non-malignant fibroblasts, Table 2, 72 h of treatment, cut-off 30 μM. In kind it is cell-based, murine. Here is the method: as §1, §2, §3

Molecules are shown by their SMILES. Where a name gives a salt, the structure may show the parent alone.

Broadly, the melting point is the temperature of the solid-liquid transition. The molecule `CC(=O)OC[C@@]1(C)C2CC[C@]3(C)[C@H](CC=C4[C@@H]5[C@@H](C)[C@H](C)CC[C@]5(C(=O)N5CCN(C(=O)c6ccccc6-c6c7ccc(=[N+](C)C)cc-7oc7cc(N(C)C)ccc67)CC5)CC[C@]43C)[C@@]2(C)C[C@@H](OC(C)=O)[C@@H]1OC(C)=O` (stereo partly drawn) (as salt: chloride) [compound 6, (2α,3β,4α)-9-[2-{[4-(2,3,23-Tris(acetyloxy)-urs-12-en-28-oyl)-Piperazinyl]Carbonyl}Phenyl]-3,6-bis(Dimethylamino)-Xanthylium Chloride] displayed a melting point of 248 to 250 °C.

Consider `CCCN(CCC)c1ccc2c(-c3ccccc3C(=O)N3CCN(C(=O)[C@]45CC[C@@H](C)[C@H](C)[C@H]4C4=CC[C@@H]6[C@@]7(C)C[C@@H](OC(C)=O)[C@H](OC(C)=O)[C@@](C)(COC(C)=O)C7CC[C@@]6(C)[C@]4(C)CC5)CC3)c3ccc(=[N+](CCC)CCC)cc-3oc2c1` (stereo partly drawn) (as salt: chloride) [compound 8, (2α,3β,4α)-9-[2-{[4-(2,3,23-Tris(Acetyloxy)-urs-12-en-28-oyl)-Piperazinyl]Carbonyl}Phenyl]-3,6-Bis(Dipropylamino)-Xanthylium Chloride], for which the melting point lay in the range of 226 to 228 °C.

In turn, `CCCCN(CCCC)c1ccc2c(-c3ccccc3C(=O)N3CCN(C(=O)[C@]45CC[C@@H](C)[C@H](C)[C@H]4C4=CC[C@@H]6[C@@]7(C)C[C@@H](OC(C)=O)[C@H](OC(C)=O)[C@@](C)(COC(C)=O)C7CC[C@@]6(C)[C@]4(C)CC5)CC3)c3ccc(=[N+](CCCC)CCCC)cc-3oc2c1` (stereo partly drawn) (as salt: chloride) [compound 9, (2α,3β,4α)-9-[2-{[4-(2,3,23-Tris(Acetyloxy)-urs-12-en-28-oyl)-Piperazinyl]Carbonyl}Phenyl]-3,6-Bis(Dibutylamino)-Xanthylium Chloride] registered a melting point of 222 to 226 °C.

`CC(=O)OC[C@@]1(C)C2CC[C@]3(C)[C@H](CC=C4[C@@H]5[C@@H](C)[C@H](C)CC[C@]5(C(=O)N5CCN(C(=O)c6ccccc6C6=c7cc8c9c(c7Oc7c6cc6c%10c7CCCN%10CCC6)CCC[N+]=9CCC8)CC5)CC[C@]43C)[C@@]2(C)C[C@@H](OC(C)=O)[C@@H]1OC(C)=O` (stereo partly shown) (as salt: chloride) [compound 10] registered a melting point of 244 to 247 °C.

`CC(=O)OC[C@@]1(C)C2CC[C@]3(C)[C@H](CC=C4[C@@H]5[C@@H](C)[C@H](C)CC[C@]5(C(=O)N5CCCN(C(=O)c6ccccc6-c6c7ccc(=[N+](C)C)cc-7oc7cc(N(C)C)ccc67)CC5)CC[C@]43C)[C@@]2(C)C[C@@H](OC(C)=O)[C@@H]1OC(C)=O` (stereo partly drawn) (as salt: chloride) [compound 11, (2α,3β,4α)-9-[2-{[4-(2α,3β,23-Tris(Acetyloxy)-urs-12-en-28-oyl)-Homopiperazinyl]Carbonyl}Phenyl]-3,6-Bis(Dimethylamino)-Xanthylium Chloride]: the melting point was 258 to 260 °C.

Turning to `CCCN(CCC)c1ccc2c(-c3ccccc3C(=O)N3CCCN(C(=O)[C@]45CC[C@@H](C)[C@H](C)[C@H]4C4=CC[C@@H]6[C@@]7(C)C[C@@H](OC(C)=O)[C@H](OC(C)=O)[C@@](C)(COC(C)=O)C7CC[C@@]6(C)[C@]4(C)CC5)CC3)c3ccc(=[N+](CCC)CCC)cc-3oc2c1` (stereo partly drawn) (as salt: chloride) [compound 13, (2α,3β,4α)-9-[2-{[4-(2α,3β,23-Tris(Acetyloxy)-urs-12-en-28-oyl)-Homopiperazinyl]Carbonyl}Phenyl]-3,6-Bis(Dipropylamino)-Xanthylium Chloride], the melting point is 224 to 225 °C.

`CCCCN(CCCC)c1ccc2c(-c3ccccc3C(=O)N3CCCN(C(=O)[C@]45CC[C@@H](C)[C@H](C)[C@H]4C4=CC[C@@H]6[C@@]7(C)C[C@@H](OC(C)=O)[C@H](OC(C)=O)[C@@](C)(COC(C)=O)C7CC[C@@]6(C)[C@]4(C)CC5)CC3)c3ccc(=[N+](CCCC)CCCC)cc-3oc2c1` (stereo partly drawn) (as salt: chloride) [compound 14, (2α,3β,4α)-9-[2-{[4-(2α,3β,23-Tris(Acetyloxy)-urs-12-en-28-oyl)-Homopiperazinyl]Carbonyl}Phenyl]-3,6-Bis(Dibutylamino)-Xanthylium Chloride]: the melting point fell in the range of 210 to 213 °C.

The EC50 is the concentration needed to bring the measured effect to its halfway point. As to `CC(=O)OC[C@@]1(C)C2CC[C@]3(C)[C@H](CC=C4[C@@H]5[C@@H](C)[C@H](C)CC[C@]5(C(=O)N5CCCN(C(=O)c6ccccc6-c6c7ccc(=[N+](C)C)cc-7oc7cc(N(C)C)ccc67)CCC5)CC[C@]43C)[C@@]2(C)C[C@@H](OC(C)=O)[C@@H]1OC(C)=O` (stereo partly drawn) [compound 16, (2α,3β,4α)-9-[2-[{4-(2α,3β,23-Tris(Acetyloxy)-urs-12-en-28-oyl)-1,5-Diazocan-1-Yl]Carbonyl}Phenyl]-3,6-Bis(Dimethylamino)-Xanthylium Chloride], the concentration giving a half-maximal response (EC50) in series [1] is 0.5 ± 0.2 µM; in series [2] it was 0.006 ± 0.001 µM; in series [3], 0.05 ± 0.01 µM; in the series on A375 (melanoma) it was 0.07 ± 0.01 µM; in series [4] it was 0.05 ± 0.02 µM. In series [5], this molecule showed a 50% effective concentration (EC50) at 72 h of 0.4 ± 0.09 µM.

`CCN(CC)c1ccc2c(-c3ccccc3C(=O)N3CCCN(C(=O)[C@]45CC[C@@H](C)[C@H](C)[C@H]4C4=CC[C@@H]6[C@@]7(C)C[C@@H](OC(C)=O)[C@H](OC(C)=O)[C@@](C)(COC(C)=O)C7CC[C@@]6(C)[C@]4(C)CC5)CCC3)c3ccc(=[N+](CC)CC)cc-3oc2c1` (stereo partly drawn) [compound 17, (2α,3β,4α)-9-[2-[{4-(2α,3β,23-Tris(Acetyloxy)-urs-12-en-28-oyl)-1,5-Diazocan-1-Yl]Carbonyl}Phenyl]-3,6-Bis(Diethylamino)-Xanthylium Chloride]: the concentration giving a half-maximal response (EC50) in series [1] is 0.06 ± 0.01 µM; in series [2], 0.007 ± 0.002 µM; in series [3] it was 0.025 ± 0.02 µM; in the series with A375 (melanoma), 0.03 ± 0.01 µM; in series [4], 0.03 ± 0.01 µM. The molecule further gave an EC50 at 72 h in series [5] of 0.45 ± 0.02 µM.

With `CCCN(CCC)c1ccc2c(-c3ccccc3C(=O)N3CCCN(C(=O)[C@]45CC[C@@H](C)[C@H](C)[C@H]4C4=CC[C@@H]6[C@@]7(C)C[C@@H](OC(C)=O)[C@H](OC(C)=O)[C@@](C)(COC(C)=O)C7CC[C@@]6(C)[C@]4(C)CC5)CCC3)c3ccc(=[N+](CCC)CCC)cc-3oc2c1` (stereo partly drawn) [compound 18, (2α,3β,4α)-9-[2-[{4-(2α,3β,23-Tris(Acetyloxy)-urs-12-en-28-oyl)-1,5-Diazocan-1-Yl]Carbonyl}Phenyl]-3,6-Bis(Dipropylamino)-Xanthylium Chloride], the 50% effective concentration (EC50) in series [1] came out at 0.07 ± 0.02 µM; in series [2] it was 0.0019 ± 0.0002 µM; in series [3], 0.017 ± 0.002 µM; in the series with A375 (melanoma) it was 0.0074 ± 0.0009 µM; in series [4], 0.012 ± 0.004 µM. This molecule yielded a concentration for a half-maximal effect (EC50) at 72 h in series [5] of 0.36 ± 0.05 µM.

Take `CCCCN(CCCC)c1ccc2c(-c3ccccc3C(=O)N3CCCN(C(=O)[C@]45CC[C@@H](C)[C@H](C)[C@H]4C4=CC[C@@H]6[C@@]7(C)C[C@@H](OC(C)=O)[C@H](OC(C)=O)[C@@](C)(COC(C)=O)C7CC[C@@]6(C)[C@]4(C)CC5)CCC3)c3ccc(=[N+](CCCC)CCCC)cc-3oc2c1` (stereo partly drawn) [compound 19, (2α,3β,4α)-9-[2-[{4-(2α,3β,23-Tris(Acetyloxy)-urs-12-en-28-oyl)-1,5-Diazocan-1-Yl]Carbonyl}Phenyl]-3,6-Bis(Dibutylamino)-Xanthylium Chloride]: the concentration for a half-maximal effect (EC50) in series [1] came out at 0.17 ± 0.08 µM; in series [2], 0.006 ± 0.002 µM; in series [3] it was 0.04 ± 0.005 µM; in the series with A375 (melanoma) it was 0.03 ± 0.01 µM; in series [4], 0.03 ± 0.01 µM. In series [5], this molecule registered a half-maximal effective concentration (EC50) at 72 h of 0.24 ± 0.08 µM.
